Numbers after ± are expanded uncertainties.
Details: 101.33 kPa, Liquid

Structure (SMILES)	speed of sound (293.15 K) [m/s]	viscosity (293.15 K) [mPa·s]	speed of sound (298.15 K) [m/s]	viscosity (298.15 K) [mPa·s]	speed of sound (303.15 K) [m/s]	viscosity (303.15 K) [mPa·s]	speed of sound (308.15 K) [m/s]	viscosity (308.15 K) [mPa·s]	speed of sound (313.15 K) [m/s]	viscosity (313.15 K) [mPa·s]	speed of sound (318.15 K) [m/s]	viscosity (318.15 K) [mPa·s]
CC(O)CCO (centres undefined) [1,3-butanediol]	1539.6 ± 3.3	130.32 ± 11	1523.4 ± 3.2	97.26 ± 5.9	1506.3 ± 3.2	69.84 ± 2.3	1492.5 ± 3.2	52.54 ± 0.69	1480.8 ± 3.2	39.42 ± 0.95	1470.3 ± 3.2	30.51 ± 0.75
CCCCO [butan-1-ol]	1262.4 ± 2.8	2.936 ± 0.066	1242.6 ± 2.7	2.542 ± 0.058	1224.6 ± 2.7	2.275 ± 0.052	1207.6 ± 2.7	1.998 ± 0.046	1189.2 ± 2.7	1.744 ± 0.041	1170 ± 2.6	1.571 ± 0.037
